From PMC9120017, “Inhibition mechanism of the chloride channel TMEM16A by the pore blocker 1PBC” (Nature Communications, 2022)
Like-named read-outs stand apart in the source and are kept apart here.

Target: T1, mouse TMEM16A mutant N546A (Mus musculus, UniProt Q8BHY3, N546A)
T1 construct: expressed in transfected cells; host or cells: HEK293T
T1 sequence (Q8BHY3 1-960 N546A): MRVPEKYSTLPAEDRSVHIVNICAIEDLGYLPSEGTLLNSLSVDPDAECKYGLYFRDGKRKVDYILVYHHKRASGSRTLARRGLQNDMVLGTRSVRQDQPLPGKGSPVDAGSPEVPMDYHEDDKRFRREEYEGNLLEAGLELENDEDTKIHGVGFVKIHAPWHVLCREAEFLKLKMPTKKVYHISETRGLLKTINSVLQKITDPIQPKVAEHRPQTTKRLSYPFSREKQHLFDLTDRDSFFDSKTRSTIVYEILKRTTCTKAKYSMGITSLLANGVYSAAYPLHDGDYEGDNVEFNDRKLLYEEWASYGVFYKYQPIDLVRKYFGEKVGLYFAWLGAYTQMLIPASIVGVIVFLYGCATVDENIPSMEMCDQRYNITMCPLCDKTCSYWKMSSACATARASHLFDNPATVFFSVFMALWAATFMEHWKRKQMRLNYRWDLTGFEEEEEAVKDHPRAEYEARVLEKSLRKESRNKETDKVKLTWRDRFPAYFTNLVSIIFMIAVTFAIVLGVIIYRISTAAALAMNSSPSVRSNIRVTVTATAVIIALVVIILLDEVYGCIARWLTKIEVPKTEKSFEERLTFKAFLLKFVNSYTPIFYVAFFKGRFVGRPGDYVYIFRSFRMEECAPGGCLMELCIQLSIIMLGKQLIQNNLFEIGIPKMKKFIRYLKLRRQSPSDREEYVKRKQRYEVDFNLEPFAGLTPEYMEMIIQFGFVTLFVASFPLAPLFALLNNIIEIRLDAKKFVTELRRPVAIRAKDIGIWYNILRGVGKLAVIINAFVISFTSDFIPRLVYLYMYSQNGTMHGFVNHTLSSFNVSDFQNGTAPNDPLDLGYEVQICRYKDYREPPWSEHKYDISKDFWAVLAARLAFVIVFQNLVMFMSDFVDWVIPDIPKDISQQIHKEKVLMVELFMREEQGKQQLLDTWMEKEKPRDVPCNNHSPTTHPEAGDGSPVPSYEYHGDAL
Test: Inside-out patch recording of 1PBC block, mutant N546A
Assay type: cell-based
Conditions: for remaining activity at 1 µM: 1PBC 1; for remaining activity at 1 µM / remaining activity at 3 µM / remaining activity at 10 µM: read-out: fraction of unblocked current; for remaining activity at 3 µM: 1PBC 3; for remaining activity at 10 µM: 1PBC 10
Protocol: HEK293T cells (ATCC CRL-1573) were maintained in Dulbecco’s modified Eagle’s medium (DMEM; Sigma-Aldrich) supplemented with 10 U ml^−1 penicillin, 0.1 mg ml^−1 streptomycin (Sigma-Aldrich), 2 mM L-glutamine (Sigma-Aldrich), and 10% FBS (Sigma-Aldrich) in a humidified atmosphere containing 5% CO2 at 37 °C. HEK293S GnTI^− cells (ATCC CRL-3022) were maintained in HyClone HyCell TransFx-H medium (GE Healthcare) supplemented with 10 U ml^−1 penicillin, 0.1 mg ml^−1 streptomycin, 4 mM L-glutamine, 0.15% poloxamer 188 (Sigma-Aldrich), and 1% FBS in an atmosphere containing 5% CO2 at 185 rpm at 37 °C. The ac splice variant of mouse TMEM16A (UniProt ID: Q8BHY3), mouse TMEM16B (UniProt ID: Q8CFW1), or mouse TMEM16F (UniProt ID: Q6P9J9) bearing a 3C cleavage site, a Venus YFP, a Myc tag, and a Streptavidin-binding peptide (SBP) downstream of the open reading frame in a modified pcDNA3.1 vector (Invitrogen) were used as described previously[21],[31]. Mutations were introduced using a modified QuikChange method[58] and were verified by sequencing.
HEK293T cells were transfected with 3–4 μg DNA per 6 cm Petri dish using the calcium phosphate co-precipitation method and were used within 24–96 h after transfection. Recordings were performed on inside-out patches excised from HEK293T cells expressing the construct of interest. Patch pipettes were pulled from borosilicate glass capillaries (O.D. 1.5 mm, I.D. 0.86 mm, Sutter Instrument) and were fire-polished with a microforge (Narishige) before use. Pipette resistance was typically 3–8 MΩ when filled with the recording solutions detailed below. Seal resistance was typically 4 GΩ or higher. Voltage-clamp recordings were made using Axopatch 200B, Digidata 1550, and Clampex 10.7 (Molecular Devices). Analog signals were filtered with the in-built 4-pole Bessel filter at 10 kHz and were digitized at 20 kHz. Solution exchange was achieved using a gravity-fed system through a theta glass pipette mounted on an ultra-fast piezo-driven stepper (Siskiyou). […] All recordings were performed at 20 °C.
A symmetrical ionic condition was used throughout. Stock solution with Ca^2+-EGTA contained 150 mM NaCl, 5.99 mM Ca(OH)2, 5 mM EGTA, and 10 mM HEPES at pH 7.40. Stock solution with EGTA contained 150 mM NaCl, 5 mM EGTA, and 10 mM HEPES at pH 7.40. Free Ca^2+ concentrations were adjusted by mixing the stock solutions at the required ratios calculated using the WEBMAXC program (http://web.stanford.edu/~cpatton/webmaxcS.htm). Patch pipettes were filled with the stock solution with Ca^2+-EGTA, which has a free Ca^2+ concentration of 1 mM. 1PBC (ChemBridge) stock was reconstituted in anhydrous DMSO (Sigma-Aldrich) at 100 mM and stored at −20 °C. Working solutions with 1PBC were prepared by serial dilution. Unless otherwise stated, experiments were performed at a saturating Ca^2+ concentration as shown in Supplementary Table 1 and the primary data were corrected for current rundown as described previously[21],[25].
Concentration-response relations, obtained from the ratio of the I-V plots before and after the application of the blocker, were fitted to the Hill equation,1 I/Imax=1/1+IC50/[blocker]^h where I/Imax is the normalized current responses, IC50 defines the concentration at which inhibition is at its half-maximum, and h is the Hill coefficient.

## N#Cc1c(C(F)(F)F)cc(O)n2c1nc1ccccc12 [1PBC]
0 mV, 2 µM Ca2+
  IC50: 594 nM
0 mV
  remaining activity at 1 µM: 35.3%
  remaining activity at 3 µM: 16.8%
  remaining activity at 10 µM: 5.97%
20 mV
  remaining activity at 1 µM: 28.4%
  remaining activity at 3 µM: 12.7%
  remaining activity at 10 µM: 5.12%
40 mV
  remaining activity at 1 µM: 22%
  remaining activity at 3 µM: 11%
  remaining activity at 10 µM: 3.23%
60 mV
  remaining activity at 1 µM: 19.8%
  remaining activity at 3 µM: 8.55%
  remaining activity at 10 µM: 3.5%
80 mV
  remaining activity at 1 µM: 18.3%
  remaining activity at 3 µM: 9.38%
  remaining activity at 10 µM: 3.36%
  log-fold IC50 (change of mutant vs WT): -0.9263
100 mV
  remaining activity at 1 µM: 19.3%
  remaining activity at 3 µM: 9.83%
  remaining activity at 10 µM: 5.03%
120 mV
  remaining activity at 1 µM: 20.4%
  remaining activity at 3 µM: 10.5%
  remaining activity at 10 µM: 4.78%
140 mV
  remaining activity at 1 µM: 24.4%
  remaining activity at 3 µM: 17.6%
  remaining activity at 10 µM: 10.2%
-20 mV
  remaining activity at 1 µM: 42.1%
  remaining activity at 3 µM: 20.8%
  remaining activity at 10 µM: 6.81%
-40 mV
  remaining activity at 1 µM: 47.5%
  remaining activity at 3 µM: 25.6%
  remaining activity at 10 µM: 10.2%
-60 mV
  remaining activity at 1 µM: 55.1%
  remaining activity at 3 µM: 31.9%
  remaining activity at 10 µM: 13.2%
-80 mV
  remaining activity at 1 µM: 60.7%
  remaining activity at 3 µM: 36.9%
  remaining activity at 10 µM: 16.4%
-100 mV
  remaining activity at 1 µM: 65.9%
  remaining activity at 3 µM: 42.7%
  remaining activity at 10 µM: 19.7%
-120 mV
  remaining activity at 1 µM: 69.4%
  remaining activity at 3 µM: 48.5%
  remaining activity at 10 µM: 24.7%
-140 mV
  remaining activity at 1 µM: 71.9%
  remaining activity at 3 µM: 51.2%
  remaining activity at 10 µM: 27.4%
20 mV, 2 µM Ca2+
  IC50: 431 nM
40 mV, 2 µM Ca2+
  IC50: 326 nM
60 mV, 2 µM Ca2+
  IC50: 269 nM
80 mV, 2 µM Ca2+
  IC50: 239 nM
100 mV, 2 µM Ca2+
  IC50: 233 nM
120 mV, 2 µM Ca2+
  IC50: 238 nM
140 mV, 2 µM Ca2+
  IC50: 315 nM
-20 mV, 2 µM Ca2+
  IC50: 805 nM
-40 mV, 2 µM Ca2+
  IC50: 1020 nM
-60 mV, 2 µM Ca2+
  IC50: 1360 nM
-80 mV, 2 µM Ca2+
  IC50: 1720 nM
-100 mV, 2 µM Ca2+
  IC50: 2170 nM
-120 mV, 2 µM Ca2+
  IC50: 2750 nM
-140 mV, 2 µM Ca2+
  IC50: 3100 nM
N546A, V 0 mV
  IC50: 594 nM
N546A, V 20 mV
  IC50: 431 nM
N546A, V 40 mV
  IC50: 326 nM
N546A, V 60 mV
  IC50: 269 nM
N546A, V 80 mV
  IC50: 239 nM
N546A, V 100 mV
  IC50: 233 nM
N546A, V 120 mV
  IC50: 238 nM
N546A, V 140 mV
  IC50: 315 nM
N546A, V -20 mV
  IC50: 805 nM
N546A, V -40 mV
  IC50: 1020 nM
N546A, V -60 mV
  IC50: 1360 nM
N546A, V -80 mV
  IC50: 1720 nM
N546A, V -100 mV
  IC50: 2170 nM
N546A, V -120 mV
  IC50: 2750 nM
N546A, V -140 mV
  IC50: 3100 nM
